Laboratory results published in article PMC8000724, “Trans-Epithelial Transport, Metabolism, and Biological Activity Assessment of the Multi-Target Lupin Peptide [sequence] (P5) and Its Metabolite [sequence] (P5-Met)” (Nutrients, 2021).
No end group written: not given here.

Tests used:
[1] = biological target: T1, HMGCoAR (catalytic domain) (Homo sapiens, UniProt P04035); assay: HMGCoAR activity assay; type: biochemical
T1 construct: finally the HMGCoAR (catalytic domain) (2 µL); purchased Sigma-Aldrich
T1 sequence (P04035 340-888 limits assumed): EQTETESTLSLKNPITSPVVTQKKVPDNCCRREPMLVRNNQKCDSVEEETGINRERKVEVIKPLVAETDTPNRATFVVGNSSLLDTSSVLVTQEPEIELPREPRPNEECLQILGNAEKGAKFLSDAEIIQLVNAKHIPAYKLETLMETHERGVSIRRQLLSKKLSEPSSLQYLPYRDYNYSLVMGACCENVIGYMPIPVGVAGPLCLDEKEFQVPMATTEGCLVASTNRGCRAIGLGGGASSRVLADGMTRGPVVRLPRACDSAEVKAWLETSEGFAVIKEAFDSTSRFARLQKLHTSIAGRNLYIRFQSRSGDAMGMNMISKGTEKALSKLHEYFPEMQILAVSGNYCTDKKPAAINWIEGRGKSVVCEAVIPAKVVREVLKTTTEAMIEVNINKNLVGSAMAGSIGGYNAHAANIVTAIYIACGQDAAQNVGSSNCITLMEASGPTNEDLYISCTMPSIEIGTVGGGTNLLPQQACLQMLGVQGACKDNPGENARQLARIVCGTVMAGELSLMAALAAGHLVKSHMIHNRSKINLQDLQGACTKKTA
Procedure: The experiments were carried out following the manufacturer instructions and optimized protocol. The assay buffer, NADPH, substrate solution, and HMGCoAR were provided in the HMGCoAR Assay Kit (Sigma Aldrich SRL, Milan, Italy). The experiments were carried out following the manufacturer instructions at 37 °C. In particular, each reaction (200 µL) was prepared adding the reagents in the following order: 1× assay buffer, a 10–500 µM doses of P5 and P5-met or vehicle (C), the NADPH (4 µL), the substrate solution (12 µL), and finally the HMGCoAR (catalytic domain) (2 µL). Subsequently, the samples were mixed and the absorbance at 340 nm read by the microplate reader Synergy H1 (Winooski, VT, USA) at time 0 and 10 min. The HMGCoAR-dependent oxidation of NADPH and the inhibition properties of peptides were measured by absorbance reduction, which is directly proportional to enzyme activity.

[2] = tested on: differentiated Caco-2 cells (AP membrane peptidases); assay: Metabolites of P5 produced by Caco-2 cell peptidases, MS analysis of AP solutions; type: in vitro ADME, human; design: key to Metabolite of P5 identified in the AP compartment: Mixture / Metabolite of P5 identified in the AP compartment: Alone: x, detected; n.d., not detected; conditions: P5 incubated in mixture with P3 and P7 (500 μM each), Caco-2, end of incubation 120 min
Procedure: (§1) Prior to experiments, the cell monolayer integrity and differentiation were checked by TEER measurement as described in detail above. Peptide trans-epithelial passage was assayed in differentiated Caco-2 cells in transport buffer solution (137 mM NaCl, 5.36 mM KCl, 1.26 mM CaCl2, and 1.1 mM MgCl2, 5.5 mM glucose) according to previously described conditions. In order to reproduce the pH conditions existing in vivo in the small intestinal mucosa, the apical (AP) solutions were maintained at pH 6.0 (buffered with 10 mM morpholinoethane sulfonic acid), and the basolateral (BL)solutions were maintained at pH 7.4 (buffered with 10 mM […]). Prior to transport experiments, cells were washed twice with 500 µL PBS containing Ca^++ and Mg^++. Peptide transportation by mature Caco-2 cells was assayed by loading the AP compartment with P5 alone, in mixture with […] (P3) and […] (P7), and/or P5-met (500 μM) in the AP transport solution (500 µL) and the BL compartment with the BL transport solution (700 µL). The plates were incubated at 37 °C and the BL solutions were collected at different time points (i.e., 15, 30, 60, 90, and 120 min) and replaced with fresh solutions pre-warmed at 37 °C. All BL and AP solutions collected at the end of the transport experiment were stored at −80 °C prior to analysis. Three independent transport experiments were performed, each in duplicate. In order to assess the involvement of transcytotic process in peptides passage, parallel transport experiments were performed in the presence of 500 nM wortmannin in both the AP and BL compartment, over 60 min incubation time.
The medium collected at the end of transport experiments from AP and BL chambers (500 µL and 700 µL, respectively) were freeze-dried and residues were solubilized in HPLC water (100 µL). Samples were desalted with C18 resin ZipTip by using 80% ACN, 0.1% FA as eluent (Millipore Corporation, Bedford, MA, USA). Each sample was lyophilized under speed-vacuum for 5 h at 30°C and re-dissolved in 50 μL (0.1% formic acid), before MS analysis. Purified BL samples were analyzed on a SL IT mass spectrometer interfaced with a HPLC- Chip Cube source (Agilent Technologies, Palo Alto, CA, USA). Data were processed with MSD Trap control 4.2, and Data analysis 4.2 version (Agilent Technologies, Palo Alto, CA, USA). The chromatographic separation was performed using a 1200 HPLC system equipped with a binary pump. […] Specifically, The monitored MRM transitions of P5-met were from the mono-charged precursor ion [M^+H]^+ (m/z 882.43) to product-ions m/z 678.3 and 407.1, respectively. […]

[3] = tested on: differentiated Caco-2 cells; assay: Trans-epithelial transport across differentiated Caco-2 cell monolayer; type: in vitro ADME, human
Procedure: Human intestinal Caco-2 cells, obtained from INSERM (Paris, France), where cultured according to a published protocol. For differentiation, they were seeded on polycarbonate filters, 12 mm diameter, 0.4 µm pore diameter (Transwell, Corning Inc., Lowell, MA, US) at a 3.5 × 10^5 cells/cm^2 density in complete medium supplemented with 10% FBS in both AP and BL compartments for 2 d to allow the formation of a confluent cell monolayer. Starting from day three after seeding, cells were transferred to FBS-free medium in both compartments, supplemented with ITS (final concentration 10 mg/L insulin (I), 5.5 mg/L transferrin (T), 6.7 μg/L sodium selenite (S); GIBCO-Invitrogen, San Giuliano Milanese, Italy) only in the basolateral (BL) compartment, and allowed to differentiate for 18–21 days with regular medium changes three times weekly.
The transepithelial electrical resistance (TEER) of differentiated Caco-2 cells was measured at 37 °C using the voltmeter apparatus Millicell (Millipore Co., Billerica, MA, USA), immediately before and at the end of the transport experiments. In addition, at the end of transport experiments, cells were incubated from the AP side with 1 mM phenol-red in PBS containing Ca^++ (0.9 mM) and Mg^++ (0.5 mM) for 1 h at 37 °C, to monitor the paracellular permeability of the cell monolayer. The BL solutions were then collected and NaOH (70 µL, 0.1 N) was added before reading the absorbance at 560 nm by a microplate reader Synergy H1 from Biotek (Winooski, VT, USA). Phenol-red passage was quantified using a standard phenol-red curve. Only filters showing TEER values and phenol red passages similar to untreated control cells were considered for peptide transport analysis.
as §1
The medium collected at the end of transport experiments from AP and BL chambers (500 µL and 700 µL, respectively) were freeze-dried and residues were solubilized in HPLC water (100 µL). Samples were desalted with C18 resin ZipTip by using 80% ACN, 0.1% FA as eluent (Millipore Corporation, Bedford, MA, USA). Each sample was lyophilized under speed-vacuum for 5 h at 30°C and re-dissolved in 50 μL (0.1% formic acid), before MS analysis. Purified BL samples were analyzed on a SL IT mass spectrometer interfaced with a HPLC- Chip Cube source (Agilent Technologies, Palo Alto, CA, USA). […]

## CC[C@H](C)C(=O)O[C@H]1C[C@H](O)C=C2C=C[C@H](C)[C@H](CC[C@@H](O)C[C@@H](O)CC(=O)O)[C@H]21 [pravastatin, reference compound]
[1]; 1.0 µM, positive control
  Reduction of HMGCoAR enzyme activity: 82.0%

## ILPKHSDAD [Peptide P5-frag, minor metabolite of P5, loss of the N-terminal leucine]
[2]
  Metabolite of P5 identified in the AP compartment: Mixture: x

## LILPKHSDAD [Peptide P5]
[3]; 500 nM wortmannin in AP and BL compartments, 60 min, HPLC-Chip MS of BL compartment
  Effect of the transcytosis inhibitor wortmannin on transport across Caco-2 cells: significantly impairs the transport
[3]; Caco-2 AP to BL, 2 h, 500 μM
  Amount in BL compartment, mixture versus alone: about 3.5 fold
[3]; in mixture with other lupin peptides (P3, P7), Caco-2 AP to BL, 500 μM
  Transport rate across Caco-2 monolayer: 8.9 ± 0.4 ng/(mL × min)
[3]; tested alone, 500 μM in AP, Caco-2 AP to BL, 2 h, conversion of the μg value
  Amount in the BL compartment at the end of incubation (2 h): 0.271 nmol
[3]; tested alone, 500 μM in AP, Caco-2 AP to BL, AP pH 6.0 / BL pH 7.4, 37 °C, 2 h, HPLC-Chip MS, mean ± SD
  Amount in the BL compartment at the end of incubation (2 h): 0.3 ± 0.02 µg
[3]; tested alone, 500 μM in AP, Caco-2 AP to BL, AP pH 6.0 / BL pH 7.4, 37 °C, HPLC-Chip MS, mean ± SD
  Amount in the BL compartment after 60 min: 0.20 ± 0.02 µg
[3]; tested alone, Caco-2 AP to BL, 500 μM
  Transport rate across Caco-2 monolayer: 1.8 ± 0.3 ng/(mL × min)
[3]; tested in mixture with P3 and P7, each 500 μM in AP, Caco-2 AP to BL, 2 h, conversion of the μg value
  Amount in the BL compartment at the end of incubation (2 h): 0.99 nmol
[3]; tested in mixture with P3 and P7, each 500 μM in AP, Caco-2 AP to BL, AP pH 6.0 / BL pH 7.4, 37 °C, 2 h, HPLC-Chip MS, mean ± SD
  Amount in the BL compartment at the end of incubation (2 h): 1.1 ± 0.2 µg
[1]; 10-500 µM peptide, 37 °C, NADPH absorbance 340 nm at 0 and 10 min
  IC50: 147 µM
